# Literature values in US20050209551A1, “Detoxification and breast health preparations” (priority 2004, published 2005).
# How the values were obtained:
# [1] = oral administration
# [2] = system: precancerous lesions of the cervix and laryngeal papillomas; conditions: pathologies with a human papillomavirus (HPV); reported
fraction of EDTA absorbed when administered by mouth ([1]; general consensus),unabsorbed EDTA that remains within the digestive tract ([1]; reported),Compound,clinical effectiveness in treating precancerous lesions of the cervix and laryngeal papillomas [2]
about five,95%,"O=C(O)CN(CCN(CC(=O)O)CC(=O)O)CC(=O)O [EDTA, ethylene-diaminetetraacetic acid]",
,,"OCc1c[nH]c2ccccc12 [Example I3C, indole-3-carbinol]",clinically effective
,,"c1ccc2c(Cc3c[nH]c4ccccc34)c[nH]c2c1 [DIM, 3,3′-diindolylmethane]",clinically effective
